We go through 19 compounds from US9765075B2, “Substituted bridged urea analogs as sirtuin modulators” (GLAXOSMITHKLINE LLC, priority 2013, dated 2017).

This test concerns the target T1, SIRT1 (Homo sapiens, UniProt Q96EB6).
T1 sequence (Q96EB6 1-747): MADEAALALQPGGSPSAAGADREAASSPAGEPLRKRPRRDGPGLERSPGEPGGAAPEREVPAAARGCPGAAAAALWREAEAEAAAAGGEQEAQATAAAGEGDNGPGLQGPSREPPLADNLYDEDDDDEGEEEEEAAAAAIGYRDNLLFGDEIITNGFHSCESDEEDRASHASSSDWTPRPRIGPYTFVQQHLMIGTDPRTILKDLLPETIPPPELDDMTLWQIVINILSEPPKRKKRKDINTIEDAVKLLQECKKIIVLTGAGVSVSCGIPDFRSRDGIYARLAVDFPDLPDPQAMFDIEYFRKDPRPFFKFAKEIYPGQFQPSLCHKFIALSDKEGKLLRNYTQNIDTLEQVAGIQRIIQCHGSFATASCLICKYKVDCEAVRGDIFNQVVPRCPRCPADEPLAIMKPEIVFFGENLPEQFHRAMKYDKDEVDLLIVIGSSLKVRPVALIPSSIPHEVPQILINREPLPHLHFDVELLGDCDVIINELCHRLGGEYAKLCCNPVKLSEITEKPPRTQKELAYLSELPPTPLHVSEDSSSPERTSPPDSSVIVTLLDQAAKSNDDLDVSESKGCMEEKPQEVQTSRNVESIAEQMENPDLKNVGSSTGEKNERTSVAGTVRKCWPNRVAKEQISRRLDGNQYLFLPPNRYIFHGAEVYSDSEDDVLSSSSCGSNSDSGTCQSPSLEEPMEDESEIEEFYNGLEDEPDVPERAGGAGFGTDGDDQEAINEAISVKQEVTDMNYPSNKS
The experiment in a line: Trp mass spectrometry assay (SIRT1 activation). It is filed as biochemical. The note with it: Trp mass spectrometry assay; for Tryp AVG EC1.5 (μM): EC1.5 = concentration giving 150% activation of SIRT1; for Emax: percent maximum fold activation of SIRT1, read-out: Tryp % Fold Act. An outline of the steps: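 N-His-tagged SIRT1 (10 nM), expressed in E. coli, was incubated with 0.5 μM Ac-RHKK(Ac)W-NH2 peptide and 120 μM NAD+ for 25 min at 25 °C in HEPES pH 7.5 with […]. The reaction was stopped with formic acid and O-acetyl-ADP-ribose or deacetylated peptide was quantified by mass spectrometry. Results are given as EC1.5 and percent maximal activation relative to DMSO control.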

As for `CCCn1cc(-c2cccc(NC(=O)N3c4nc(-c5cccc(C(F)(F)F)c5)ccc4N4CC[C@H]3C4)n2)cn1` [Example 656], the “Tryp AVG EC1.5 (μM)” value was “A (EC1.5<1 μM)” and the Emax is no less than 150%.
Consider `Cc1noc(C)c1-c1cccc(NC(=O)N2c3nc(-c4cccc(C(F)(F)F)c4)ccc3N3CC[C@H]2C3)n1` [Example 657], for which the “Tryp AVG EC1.5 (μM)” value is reported as “A (EC1.5<1 μM)” and the Emax was no less than 150%.
The corresponding values for `O=C(Nc1cccc(C2=CCOCC2)n1)N1c2nc(-c3cccc(C(F)(F)F)c3)ccc2N2CC[C@H]1C2` [Example 658] are “A (EC1.5<1 μM)” and no less than 150%.
The corresponding values for `NC(=O)c1ccc(NC(=O)N2c3nc(-c4cccc(C(F)(F)F)c4)ccc3N3CC[C@H]2C3)cc1` [Example 659] are “A (EC1.5<1 μM)” and no less than 150%.
The corresponding values for `O=C(Nc1cccc(-c2cccnc2)c1)N1c2nc(-c3cccc(C(F)(F)F)c3)ccc2N2CC[C@H]1C2` [Example 660] are “A (EC1.5<1 μM)” and no less than 150%.
In the case of `O=C(NCCn1ccnc1)N1c2nc(-c3cccc(C(F)(F)F)c3)ccc2N2CC[C@H]1C2` [Example 661], the “Tryp AVG EC1.5 (μM)” value was “C (EC1.5>25 μM)” and the Emax is no less than 150%.
The corresponding values for `O=C(Nc1cc(-c2cnco2)ccn1)N1c2nc(-c3cccc(C(F)(F)F)c3)ccc2N2C[C@@H](O)[C@H]1C2` [Example 662] are “B (EC1.5 1-25 μM)” and no less than 150%.
Consider `O=C(Nc1cccnc1)N1c2nc(-c3cccc(C(F)(F)F)c3)ccc2N2C[C@@H](O)[C@H]1C2` [Example 663], for which the “Tryp AVG EC1.5 (μM)” value is “A (EC1.5<1 μM)” and the Emax is no less than 150%.
Turning to `COc1cc(NC(=O)N2c3nc(-c4cccc(C(F)(F)F)c4)ccc3N3C[C@@H](O)[C@H]2C3)nc(OC)n1` [Example 664], the “Tryp AVG EC1.5 (μM)” value is “B (EC1.5 1-25 μM)” and the Emax was no less than 150%.
For `O=C(Nc1cccc(-c2cnco2)c1)N1c2nc(-c3cccc(C(F)(F)F)c3)ccc2N2C[C@@H](O)[C@H]1C2` [Example 665], in that order: “A (EC1.5<1 μM)” and no less than 150%.
For `O=C(Nc1ccc2[nH]ncc2c1)N1c2nc(-c3cccc(C(F)(F)F)c3)ccc2N2CC[C@H]1C2` [Example 666], the “Tryp AVG EC1.5 (μM)” value is “A (EC1.5<1 μM)” and the Emax was no less than 150%.
Regarding `O=C(Nc1cccc(-c2ccccn2)c1)N1c2nc(-c3cccc(C(F)(F)F)c3)ccc2N2CC[C@H]1C2` [Example 667], the “Tryp AVG EC1.5 (μM)” value is reported as “A (EC1.5<1 μM)” and the Emax was no less than 150%.
For `CC(=O)c1ccc(NC(=O)N2c3nc(-c4cccc(C(F)(F)F)c4)ccc3N3CC[C@H]2C3)cc1` [Example 668], in that order: “A (EC1.5<1 μM)” and no less than 150%.
For `O=C(Nc1ccncn1)N1c2nc(-c3cccc(C(F)(F)F)c3)ccc2N2C[C@@H](O)[C@H]1C2` [Example 669], in that order: “B (EC1.5 1-25 μM)” and no less than 150%.
For `Cc1cncc(NC(=O)N2c3nc(-c4cccc(C(F)(F)F)c4)ccc3N3C[C@@H](O)[C@H]2C3)c1` [Example 670], the “Tryp AVG EC1.5 (μM)” value is “A (EC1.5<1 μM)” and the Emax was no less than 150%.
The corresponding values for `CC(=O)c1cccc(NC(=O)N2c3nc(-c4cccc(C(F)(F)F)c4)ccc3N3CC[C@H]2C3)c1` [Example 671] are “A (EC1.5<1 μM)” and no less than 150%.
`O=C(Nc1ccc(Br)c(-c2cnco2)c1)N1c2nc(-c3cccc(C(F)(F)F)c3)ccc2N2CC[C@H]1C2` [Example 672]: the “Tryp AVG EC1.5 (μM)” value is given as “A (EC1.5<1 μM)” and the Emax was no less than 150%.
The corresponding values for `O=C(NCCCc1ccccn1)N1c2nc(-c3cccc(C(F)(F)F)c3)ccc2N2CC[C@H]1C2` [Example 673] are “B (EC1.5 1-25 μM)” and no less than 150%.
For `O=C(NCCCc1cccnc1)N1c2nc(-c3cccc(C(F)(F)F)c3)ccc2N2CC[C@H]1C2` [Example 674], in that order: “B (EC1.5 1-25 μM)” and no less than 150%.
